# Measured values as given in US8338624B2, “Isoflavone derivatives and uses thereof” (Yeda Research and Development Co., Ltd., priority 2007, dated 2012).
# Experiments:
# MLS ovarian cancer cells = experiment: DNA synthesis by [3H]-thymidine incorporation, MLS cells; assay type: cell-based, human
# Protocol: (§1) Cells were cultured in MEM supplemented with 10% FCS and antibiotics. Cells were grown to subconfluence and then treated with various hormones or agents as described by Somjen et al. (Somjen et al., 1998). The cells were characterized in terms of expression of mRNAs for estrogen […] by real time PCR, and the results are summarized in Table 1. N87, 320DM and H295R cells expressed mRNAs for both ERs. The ratio of ERα to ERβ was 1:8.5, 1:30 and 1:1.8 in N87, 320DM and H295R cells, respectively. Ovarian A2780 and prostate C4-24 cells expressed mainly mRNA for ERβ, and the ratio of ERβ to ERα was 300:1 and 70:1, respectively. MLS ovarian cells expressed mRNA only for ERβ. The ratio of ERα to ERβ in T47D cells has been reported to be 9:1.
# (§2) [^3H]-Thymidine incorporation into DNA was used for the assessment of the various effects (proliferative or inhibitory) of various isoflavones, isoflavone derivatives and known cytotoxic drugs in the above-mentioned cells. Cells were grown until subconfluence using conditions described in Somjen et al. (Somjen et al., 1998) and then treated with various agents for 24 or 48 h as indicated. At the end of incubation, [^3H]-thymidine was added for two hours. Cells were then treated with 10% ice-cold trichloroacetic (TCA) for 5 min and washed twice with 5% TCA and then with cold ethanol. The cellular layer was dissolved in 0.3 ml of 0.3 M NaOH, aliquots were taken for counting radioactivity, and [^3H]-thymidine incorporation into DNA was calculated.
# [1] = system: MDA-MB-435 breast cancer cell line; experiment: NCI In Vitro Cell Line Screening, MDA-MB-435; assay type: cell-based; conditions: Homo sapiens, read-out: log10 GI50 (converted)
# Protocol: (§3) An in vitro cell line screen for the t-boc derivative of daidzein (compound 9) was performed at the NCI/NIH US utilizing the In Vitro Cell Line Screening Project (IVCLSP) (National Cancer Institute, Developmental Therapeutics Program, Information Technology Branch, Rockville, Md., USA).
# (§4) The operation of this screen utilized 60 different human tumor cell lines, representing leukemia, melanoma and cancers of the lung, colon, brain, ovary, breast, prostate, and kidney. […] Using these algorithms, it is possible to assign a putative mechanism of action to a test compound, or to determine that the response pattern is unique and not similar to that of any of the standard prototype compounds included in the NCI database.
# (§5) To facilitate analysis of the data, three endpoints were calculated for each cell line: The GI50 value, which is the negative log10 of the concentration required to inhibit the growth of that cell line by 50% (relative to untreated cells); TGI, the negative log10 of minimum concentration that causes total growth inhibition; and LC50, which reflects the negative log10 concentration needed to kill 50% of the cells. A Mean Graph was used as a way of easily visualizing the results from all 60 cell lines at once. To generate this graph, the mean of GI50 values across all 60 cell lines was calculated. […]
# [2] = system: SK-MEL-5 melanoma cell line; experiment: NCI In Vitro Cell Line Screening, SK-MEL-5; assay type: cell-based; conditions: Homo sapiens, read-out: log10 GI50 (converted)
# Protocol: as §3, §4, §5
# [3] = system: T47D mammary cancer cells; experiment: DNA synthesis by [3H]-thymidine incorporation, T47D cells; assay type: cell-based, human; conditions: Homo sapiens
# Protocol: as §1, §2
# [4] = system: 320DM human colon cancer cells; experiment: DNA synthesis by [3H]-thymidine incorporation, 320DM cells; assay type: cell-based
# Protocol: as §1
# as §2, with “(Somjen et al., 1998) and then treated with various agents for 24 or 48 h as indicated.” left out
# [5] = system: OVCAR-4 ovarian cancer cell line; experiment: NCI In Vitro Cell Line Screening, OVCAR-4; assay type: cell-based; conditions: Homo sapiens, read-out: log10 GI50 (converted)
# Protocol: as §3, §4, §5
# [6] = system: Human umbilical vascular smooth muscle cells (VSMC); experiment: DNA synthesis by [3H]-thymidine incorporation, normal VSMC; assay type: cell-based; conditions: compound at 3 μM
# Protocol: Human umbilical vascular smooth muscle cells (VSMC) sensitive to estrogen, were grown in culture as described above, and used only at passages 1-3, when expression of smooth muscle actin was clearly demonstrable (Somjen et al. 2000). The ratio of the expression of mRNA for ERα to ERβ was 2.7:1.
# as §2
# [7] = system: EKVX non small lung cancer cell line; experiment: NCI In Vitro Cell Line Screening, EKVX; assay type: cell-based; conditions: Homo sapiens, read-out: log10 GI50 (converted)
# Protocol: as §3, §4, §5
# [8] = system: A2780 ovarian cancer cells; experiment: DNA synthesis by [3H]-thymidine incorporation, A2780 cells; assay type: cell-based, human; conditions: compound at 3 μM
# Protocol: as §1, §2
# K-562 leukemia cell line = experiment: NCI In Vitro Cell Line Screening, K-562; assay type: cell-based; conditions: Homo sapiens, K562, read-out: log10 GI50 (converted)
# Protocol: as §3, §4, §5
# [9] = system: H295R adrenocarcinoma cells; experiment: DNA synthesis by [3H]-thymidine incorporation, H295R cells; assay type: cell-based, human
# Protocol: as §1, §2
# [10] = system: T-47D breast cancer cell line; experiment: NCI In Vitro Cell Line Screening, T-47D; assay type: cell-based; conditions: Homo sapiens, T47D, read-out: log10 GI50 (converted)
# Protocol: as §3, §4, §5
# [11] = Homo sapiens, 9 at 0.3 μM alone
# [12] = estradiol 30 nM + 0.3 μM compound 9
compound,measurement,setting,value
CC(C)(C)OC(=O)NCCCCCCNC(=O)COc1ccc2c(=O)c(-c3ccc(O)cc3)coc2c1 [Compound 9],incubation time at which plateau of inhibition of DNA synthesis was reached,MLS ovarian cancer cells,72 h
same,"DNA synthesis, ratio experimental/control (E/C)",MLS ovarian cancer cells; 9 (0.3 μM) + E2 30 nM,0.96 ± 0.24
same,"DNA synthesis, ratio experimental/control (E/C)",MLS ovarian cancer cells; 9 (0.3 μM) + E2 0.3 μM,2.39 ± 0.07
same,DNA synthesis (% of control),MLS ovarian cancer cells; 9 at 0.3 μM + 25 μM Z-VADFK,132%
same,"DNA synthesis, ratio experimental/control (E/C)",MLS ovarian cancer cells; 9 at 0.3 μM + Z-VADFK (25 μM),1.32 ± 0.26
same,suppression of the proliferative effect of estradiol,MLS ovarian cancer cells; 9 at 0.3 μM + estradiol 0.3 μM,could not suppress its proliferative effect
same,"DNA synthesis, ratio experimental/control (E/C)",MLS ovarian cancer cells; 9 at 0.3 μM alone (Table 3),0.61 ± 0.10
same,"DNA synthesis, ratio experimental/control (E/C)",MLS ovarian cancer cells; 9 at 0.3 μM alone (Table 4),0.74 ± 0.11
same,"DNA synthesis, ratio experimental/control (E/C)",MLS ovarian cancer cells; 9 at 3 μM + Z-VADFK 25 μM,0.76 ± 0.16
same,effect of apoptosis inhibitor on inhibition by 9,MLS ovarian cancer cells; 9 at 3 μM + Z-VADFK 25 μM,capable of reversing the inhibitory effect of 9 on DNA synthesis
same,"DNA synthesis, ratio experimental/control (E/C)",MLS ovarian cancer cells; 9 at 3 μM alone (Table 4),0.44 ± 0.14
same,effect on [3H]-thymidine incorporation into DNA,MLS ovarian cancer cells; 15 to 6000 nmol/l,dose dependent decreases
same,inhibition at 0.3 µM,MLS ovarian cancer cells; [11],26%
same,inhibition at 3 µM,"MLS ovarian cancer cells; Homo sapiens, 9 at 3 μM alone",56%
same,"DNA synthesis, ratio experimental/control (E/C)",MLS ovarian cancer cells; compound at 3 μM,0.03 ± 0.07
same,DNA synthesis (% of control),MLS ovarian cancer cells; [12],96%
same,GI50,[1],1820 nM
same,GI50,[2],631 nM
same,inhibition at 10 µM,[3],24 to 40%
same,incubation time at which plateau of inhibition of DNA synthesis was reached,[4],72 h
same,"DNA synthesis, ratio experimental/control (E/C)",[4]; 9 (0.3 μM) + E2 30 nM,1.08 ± 0.16
same,"DNA synthesis, ratio experimental/control (E/C)",[4]; 9 (0.3 μM) + E2 0.3 μM,1.90 ± 0.05
same,anti-proliferative effect in presence of apoptosis inhibitor,[4]; 9 at 0.3 μM + Z-VADFK,the anti-proliferative effect of 9 was not discernible
same,"DNA synthesis, ratio experimental/control (E/C)",[4]; 9 at 0.3 μM + Z-VADFK (25 μM),1.18 ± 0.14
same,suppression of the proliferative effect of estradiol,[4]; 9 at 0.3 μM + estradiol 300 nM,could not suppress its proliferative effect
same,"DNA synthesis, ratio experimental/control (E/C)",[4]; 9 at 0.3 μM alone (Table 3),0.63 ± 0.11
same,"DNA synthesis, ratio experimental/control (E/C)",[4]; 9 at 0.3 μM alone (Table 4),0.68 ± 0.14
same,"DNA synthesis, ratio experimental/control (E/C)",[4]; 9 at 3 μM + Z-VADFK (25 μM),0.5 ± 0.11
same,"DNA synthesis, ratio experimental/control (E/C)",[4]; 9 at 3 μM alone (Table 4),0.04 ± 0.22
same,effect on [3H]-thymidine incorporation into DNA,[4]; 15 to 6000 nM,dose dependent decreases
same,inhibition at 0.3 µM,[4]; [11],32%
same,inhibition at 3 µM,"[4]; Homo sapiens, 9 at 3 μM alone",≤ 96%
same,"DNA synthesis, ratio experimental/control (E/C)",[4]; compound at 3 μM,0.08 ± 0.01
same,DNA synthesis (% of control),[4]; [12],100%
same,GI50,[5],407 nM
same,"DNA synthesis, ratio experimental/control (E/C)",[6],0.73 ± 0.13
same,GI50,[7],1950 nM
same,"DNA synthesis, ratio experimental/control (E/C)",[8],0.1 ± 0.15
same,GI50,K-562 leukemia cell line,646 nM
same,inhibition at 3 µM,"[9]; Homo sapiens, NCI-H295R, at 3 μM, read-out: inhibition of DNA synthesis / growth",92%
same,"DNA synthesis, ratio experimental/control (E/C)",[9]; compound at 3 μM,0.08 ± 0.21
same,GI50,[10],1350 nM
